Measurements reported in PubChem BioAssay AID652249 (Broad Institute, 2013).
Results filed as inconclusive are left out. Calls of active or inactive are those of the source.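 How the source made its calls: active means platelet aggregation inhibition above 50% relative to unstimulated and buffer-only controls; inactive means the rest, inconclusive results apart.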

Test system: human washed platelets, SFLLRN-induced aggregation, aggregometer
Test: blockade of human platelet clumping – cell-based, aggregometer, single point, dry powder samples, mechanism study for PDI inhibitor project, late-stage follow-up (AID 652249)
Details: at 30 µM; stronger effect = higher value

Q: How did the aggregation inhibition (transmittance) turn out when CCOC(=O)C1(CCOc2ccccc2)CCN(C(=O)c2ccc(O)c(Cl)c2)CC1 was run?
A: Its aggregation inhibition (transmittance) is 100%.

Q: With CCN(C)C(=O)C1(CCOc2ccccc2)CCN(Cc2ccc(O)c(Cl)c2)CC1 as the compound, how does the aggregation inhibition (transmittance) read?
A: Its aggregation inhibition (transmittance) is 2% (inactive).

Q: For CC(C)(C)OC(=O)C1(CCOc2ccccc2)CCN(Cc2ccc(O)c(Cl)c2)CC1, which aggregation inhibition (transmittance) is on record?
A: Its aggregation inhibition (transmittance) is 100%.

Q: For O=C(Nc1ccccc1)C1(CCOc2ccccc2)CCN(Cc2ccc(O)c(Cl)c2)CC1, which aggregation inhibition (transmittance) is on record?
A: Its aggregation inhibition (transmittance) is 23% (inactive).

Q: How did the aggregation inhibition (transmittance) turn out when CCOC(=O)C1(CCOc2ccccc2)CCN(Cc2ccc(O)cc2)CC1 was run?
A: The aggregation inhibition (transmittance) was 0% (inactive).

Q: For CC(C)OC(=O)C1(CCOc2ccccc2)CCN(Cc2ccc(O)c(Cl)c2)CC1, which aggregation inhibition (transmittance) is on record?
A: Its aggregation inhibition (transmittance) is 97%.

Q: How did the aggregation inhibition (transmittance) turn out when C/C1=C\[C@@H](O)C(C)(C)CCCC2(C)OC2C[C@@H]1OC(=O)c1ccc(O)cc1 (stereo not given in full) was run?
A: The aggregation inhibition (transmittance) was 17% (inactive).

Q: CCOC(=O)C1(CCOc2ccccc2)CCN(Cc2ccc(OC)c(Cl)c2)CC1 was tested. Which aggregation inhibition (transmittance) did it give?
A: Its aggregation inhibition (transmittance) is 4% (inactive).

Q: How did the aggregation inhibition (transmittance) turn out when O=C(NC1CCCC1)C1(CCOc2ccccc2)CCN(Cc2ccc(O)c(Cl)c2)CC1 was run?
A: Its aggregation inhibition (transmittance) is 1% (inactive).

Q: Which aggregation inhibition (transmittance) does the source give for C/C1=C\C[C@H](OC(=O)c2ccc(O)cc2)/C(C)=C/[C@@H](O)C(C)(C)CCC1 here?
A: Its aggregation inhibition (transmittance) is 100%.
